System: Sarcoma-180
Assay: Pharmacological Test I: tumor weight in ICR mice subcutaneously transplanted with Sarcoma-180, oral administration
Assay type: in vivo
Conditions: Mus musculus, Sarcoma-180, 240 h, once a day for 7 consecutive days, tumor weight on 10th day after transplantation, read-out: ED50 (50% tumor inhibition dose, T/C = 0.5)
Method: Sarcoma-180 subcultured in an ascites of ICR mice was diluted with a physiological saline solution and subcutaneously transplanted into the backs of ICR mice in an amount of 2×10^7 cells each. Twenty-four hours after the transplantation, a test compound suspended in a 5% solution of gum arabic was orally administered to each of mice once a day for 7 consecutive days.
The solid tumor was isolated from under the dorsal skin of mice on the 10th day after the transplantation to measure the weight of the tumor. There was determined the ratio (T/C) of the weight of tumor (T) cut out from the group of mice treated with the test compound to the weight of tumor (C) from the group of mice not treated therewith. The 50% tumor inhibition dose (ED50 value) in which T/C is 0.5 was determined from the dose-response curve of dosage and the ratio (T/C).

CCC(=O)OC[C@H]1O[C@@H](n2cc(F)c(=O)[nH]c2=O)C[C@@H]1OCc1cccs1
ED50: 2 mg/kg

— patent US5047521A, “5-fluorouracil derivatives” (Otsuka Pharmaceutical Co., Ltd., priority 1986, dated 1991)
